One test addresses T1, human MCT1 (Homo sapiens, UniProt P53985).
T1 construct: host or cells: MDCK-II cells, transiently co-transfected
T1 sequence (P53985 1-500): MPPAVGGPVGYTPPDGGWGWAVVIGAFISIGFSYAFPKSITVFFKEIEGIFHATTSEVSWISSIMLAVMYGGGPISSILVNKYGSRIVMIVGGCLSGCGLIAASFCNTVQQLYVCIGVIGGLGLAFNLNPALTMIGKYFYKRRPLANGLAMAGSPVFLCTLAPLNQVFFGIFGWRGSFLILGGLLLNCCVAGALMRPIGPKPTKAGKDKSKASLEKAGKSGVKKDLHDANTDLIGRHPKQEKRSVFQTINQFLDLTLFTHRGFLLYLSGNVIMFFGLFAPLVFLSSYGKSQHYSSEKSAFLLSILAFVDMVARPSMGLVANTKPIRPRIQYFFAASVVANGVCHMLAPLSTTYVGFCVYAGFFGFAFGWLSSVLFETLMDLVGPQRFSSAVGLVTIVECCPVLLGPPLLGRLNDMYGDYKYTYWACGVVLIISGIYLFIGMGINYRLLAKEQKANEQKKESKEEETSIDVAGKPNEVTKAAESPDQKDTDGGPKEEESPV
T1 sequence (P35613 140-385 partner limits assumed): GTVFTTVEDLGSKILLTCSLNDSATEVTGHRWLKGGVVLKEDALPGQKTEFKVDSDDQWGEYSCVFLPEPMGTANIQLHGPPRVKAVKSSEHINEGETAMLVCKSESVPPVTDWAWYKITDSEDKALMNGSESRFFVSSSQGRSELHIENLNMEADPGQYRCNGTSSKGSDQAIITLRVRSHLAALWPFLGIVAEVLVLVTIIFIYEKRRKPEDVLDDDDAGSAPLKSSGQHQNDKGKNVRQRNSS
Put plainly: MCT1 Transport Inhibition Assay. In kind it is cell-based. The settings on record: MDCK-II cells overexpressing human MCT1 (with CD147), TPGA transport, LC-MS/MS; read-out: BioIVT MCT1 Transporter IC50. As to the method:
Inhibition of MCT1 transport after treatment with compounds of the present invention was measured in MDCK-II cells that overexpress human MCT1 by quantifying the transport of 2-Thiophene-glycoxylic acid (TPGA) into cells using LC-MS/MS.
MDCK-II cells are seeded at 60,000 cells per well in growth medium (low-glucose DMEM+10% FBS) in 96-well trans-well membrane plates, and incubated overnight (37° C., 5% CO2). Cells were co-transfected with mammalian expression constructs coding for MCT1 and CD147 at a 2:1 ratio or an empty vector control (GFP) and then incubated for 48h (37° C., 5% CO2). Cells were washed 3 times with HBSS and cells were preincubated with inhibitors or vehicle control at room temperature in HBSS for 30 min with orbital shaking (60 rpm). HBSS was aspirated from the wells and replaced with HBSS with 25 mM Bis-Tris pH5.5+inhibitor or vehicle control+500 μM TPGA and incubated for 1 min at room temperature with orbital shaking (60 rpm). Both the apical and basolateral side of the trans-well insert were washed 4 times with ice-cold PBS. Cells were lysed with 60 μL of cell extraction solution, and the amount of TPGA in each well was quantified in triplicate by LC-MS/MS. The MCT1-mediated uptake rate was calculated using the following equation: […]
Percent inhibition for each concentration of inhibitor tested was calculated using the following equation: […]
Curves were fit to the calculated percent inhibition for each inhibitor, and the IC50 representing the concentration of inhibitor at which MCT1 is inhibited by 50% was calculated from this curve.
For the molecule `Cc1[nH]nc(C(F)(F)F)c1Cc1sc2c(c1C(=O)N1C[C@](C)(O)CO1)c(=O)n(C)c(=O)n2C(C)C` [AZD3965], the 50% inhibitory concentration (IC50) (commonly the concentration at which inhibition is half-maximal) fell in the range of 50 to 150 nM.

For `O=C(Nc1ccccc1C(=O)O)c1cc(S(=O)(=O)c2ccccc2)ccc1Cl` [BAY8002], the IC50 lay within 50 to 150 nM.

Take `CCNS(=O)(=O)c1cc(Nc2ccc(CC)nn2)ccc1-c1cnc([C@H]2CC[C@H](NC(=O)OC(C)C)CC2)s1` [Compound 157, isopropyl trans-N-[4-[5-[4-[(6-ethylpyridazin-3-yl)amino]-2-(ethylsulfamoyl)phenyl]thiazol-2-yl]cyclohexyl]carbamate]: the half-inhibitory concentration (IC50) lay within 50 to 150 nM.

The test system of another test is Daudi (Burkitt Lymphoma) cells. Put plainly: Intracellular Lactate Accumulation Assay (Lactate-Glo). In kind it is cell-based. The note with it: Homo sapiens, 2h treatment, read-out: LactateGlo EC50. As to the method: Intracellular lactate accumulation after a 2h treatment with compounds of the present invention was measured in Daudi (Burkitt Lymphoma) cells using the Lactate-Glo Assay (Promega).
Daudi cells were seeded at 7,500 cells per well in 150 μL of growth medium (RPMI-1640 with 2 mM GlutaMAX+10% FBS) in clear, 96-well, flat-bottom microplates, and incubated overnight (37° C., 5% CO2). Compounds of the present invention were added using an INTEGRA VIAFLO 96 (8 point, 3-fold serial dilution, top concentration 1, 10, or 20 μM, 0.4% final DMSO concentration). After a 2h incubation (37° C., 5% CO2) microplates containing cells were washed twice with 150 μL ice-cold PBS, resuspended in 25 μL ice-cold PBS containing 12.5 μL 0.6N HCl, and placed on a microplate shaker for 5 min to lyse the cells. Following lysis, 12.5 μL 1M Trizma base was added to neutralize the suspension, and microplates were returned to the microplate shaker for 1 min. Plates were sealed and stored at −20° C. until further processing. On the day of the assay, microplates were thawed for 45 min at room temperate and 50 μL Lactate Detection Reagent (prepared as specified by manufacturer) was added to each well. Microplates were placed on a plate shaker for 1 min and incubated at room temperature for 1h. Luminescence was measured using a BioTek Cytation 5 Multi-Mode Reader. Curve fitting and calculation of EC50 was performed using GraphPad Prism.
Regarding `CCNS(=O)(=O)c1cc(Nc2ccn[nH]2)ccc1-c1cnc([C@H]2CC[C@H](NC(=O)OC(C)C)CC2)s1` [Compound 121, isopropyl trans-N-[4-[5-[2-(ethylsulfamoyl)-4-[(1H-pyrazol-5-yl)amino]phenyl]thiazol-2-yl]cyclohexyl]carbamate], the EC50 (in general, the concentration giving half of the maximal effect) is under 50 nM.

Regarding `CCNS(=O)(=O)c1cc(Nc2ccc(CC)nn2)ccc1-c1cnc([C@H]2CC[C@H](NC(=O)OC(C)C)CC2)s1` [Compound 157, isopropyl trans-N-[4-[5-[4-[(6-ethylpyridazin-3-yl)amino]-2-(ethylsulfamoyl)phenyl]thiazol-2-yl]cyclohexyl]carbamate], the concentration for a half-maximal effect (EC50) is under 50 nM.

With `CC(C)OC(=O)Nc1ccc(-c2cnc(C3CCC(NC(=O)OC(C)C)CC3)s2)c(S(=O)(=O)NCCN(C)C)c1` (stereo not shown) [Compound 175], the EC50 lay in the range of 1000 to 5000 nM.

With `CC(C)OC(=O)NC1CCC(c2ncc(-c3ccc(N(C)C(=O)NCc4ccccc4)cc3S(=O)(=O)NC(C)(C)CO)s2)CC1` (stereo not shown) [Compound 176], the EC50 was over 5000 nM.

These data come from patent publication US20250268869A1, “METHODS OF USING A (THIAZOLYL)BENZENESULFONAMIDE DERIVATIVE” (Cyteir Therapeutics, Inc., priority 2022, published 2025).
